{"source": "patent US9096528B2", "about": "“2-aminonicotinic acid ester derivative and bactericide containing same as active ingredient” (AGRO-KANESHO CO., LTD., priority 2012, dated 2015)", "test_system": "Botrytis cinerea", "experiment": "Test on Botrytis cinerea (gray mold) of a cucumber", "format": "in vivo", "settings": "25 ppm; cut cucumber cotyledons inoculated with spore suspension; 20° C. for 72 hours; from lesion diameter vs non-treatment region", "procedure": "A cucumber plant (a plant variety: “Sagami Han-shiro”) of 12 days after seeding was prepared for the test. Parts of cotyledons of the cucumber plant were cut out with leaving about 2 cm of its rachis. Apart from this, a plastic case with a size of 32 cm×24 cm×4.5 cm (length×width×height), at the bottom of which a paper towel sufficiently moistened with water was laid, and on the paper towel a mesh with legs was placed, was prepared. On the mesh, the above-described cut-out parts of cotyledons were placed such that leaves were horizontal. To the central part of each of the cotyledons, 50 μl of a spore suspension (1×10^6 spores/ml) of Botrytis cinerea of a cucumber was added dropwise. Thereafter, each of cotyledons was covered with a paper disc with a diameter of 6 mm. Apart from this, an emulsion prepared according to the above Preparation Example 1 was diluted with an aqueous solution of 0.02% Tween 20 in demineralized water to prepare a diluent of a predetermined concentration. 50 μl of the diluent was dropped on each paper disc. The plastic case was lidded and was placed under the condition of 20° C. for 72 hours, and then the diameter of each lesion was measured and the controlling rate for Botrytis cinerea (gray mold) of a cucumber was calculated according to the following equation. […]"}
{"smiles": "CCOc1cccc(Oc2ccc(CNC(=O)c3cccnc3N)cc2)c1", "note": "[A]", "values": [{"measurement": "Controlling rate (%)", "value": 54, "unit": "%"}]}
